Assay [1] has as its target T1, δ opioid receptor (Cavia porcellus, UniProt A0A286XTF2).
T1 construct: the homogenate of the brain of a guinea pig; from tissue; host or cells: guinea pig brain homogenate
As to the kind of experiment: Bonding (binding) assay, guinea pig brain homogenate, DPDPE (hot) / DADLE (cold). The method, then:
(§1) In the test for bonding, the homogenate of the brain of a guinea pig was diluted with Tris buffer in a ratio calculated to give to the produced solution a protein content of 0.7 mg per prot/tube was used as incorporated in the reaction solution. With regard to ligands for binding assay, 3H-DAGO (μ), DPDPE (δ), and EKC (κ) were used for hot samples and naloxone (μ), DADLE (δ), and naloxone (κ) for cold samples.

In assay [2] the test system is δ opioid receptor. The description is as above. The conditions noted are these: μ/δ. On the procedure: as §1
The target of the next assay is T2, κ opioid receptor (Cavia porcellus, UniProt P41144).
T2 construct: the homogenate of the brain of a guinea pig; from tissue; host or cells: guinea pig brain homogenate
T2 sequence (P41144 whole entry): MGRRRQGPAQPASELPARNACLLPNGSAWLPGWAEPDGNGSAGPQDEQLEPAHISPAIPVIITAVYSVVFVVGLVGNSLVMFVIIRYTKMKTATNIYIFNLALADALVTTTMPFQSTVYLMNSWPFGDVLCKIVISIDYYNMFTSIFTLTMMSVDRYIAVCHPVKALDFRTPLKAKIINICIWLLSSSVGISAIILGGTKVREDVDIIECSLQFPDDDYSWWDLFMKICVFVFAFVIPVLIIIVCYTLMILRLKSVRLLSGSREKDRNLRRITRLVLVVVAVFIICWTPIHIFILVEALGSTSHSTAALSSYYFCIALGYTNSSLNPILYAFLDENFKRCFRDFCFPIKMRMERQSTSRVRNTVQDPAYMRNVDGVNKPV
Put plainly: Bonding (binding) assay, guinea pig brain homogenate, EKC (hot) / naloxone (cold). The method, then: as §1

Assay [3] relates to Guinea Pig Ileal Longitudinal Muscle. Put plainly: Agonist activity in Guinea Pig Ileal Longitudinal Muscle (GPI). The conditions noted are these: guinea pig ileum. The method, then: (§2) The test of the compounds of this invention for agonist and antagonist activities was carried out in according to the method proposed by Takemori et al. (Takemori, A, E. et al.: Eur. J. Pharmacal., 1982, 85, 163) using Guinea Pig Ileal Longitudinal Muscle Mouse Vas Deferens (MVD).

The next assay has as its system mouse T cells. Put plainly: Inhibiting proliferation of mouse T cells by Con-A stimulation ([3H]thymidine uptake, spleen cells). Format: cell-based. The method, then: Now, the immunosuppressive activity of the compound 19 which is representative of the compounds of the present invention will be shown. Activity in inhibiting proliferation of mouse T cells by Con-A stimulation
A monocellular suspension was prepared by sterilely removing the spleen from a mouse and passing the spleen through a mesh. This suspension was adjusted to a concentration of 5×10^6 cells/ml and dispensed by the unit of 100 μl in all the individual wells of a 96-well plate. […] Eight hours before completion of the incubation, [^3 H]thymidine was added to the contents of the wells in a fixed ratio of 2 μCi/10 μl/well. Eight hours after this addition, the cells in the wells were collected on filter papers with the aid of a cell harvester. The cells on the filter papers were dried, then combined with a toluene type scintillator, and counted for the radioactivity of the [^3 H] thymidine occluded in the cells by means of a scintillation counter.
The ratio of suppression of T cell proliferation was calculated in accordance with the following formula:
Rate of suppression=(Radioactivity in the absence of compound-Radioactivityafter addition of compound)/(Radioactivity in the absence of compound-Radioactivity in the absence of ConA)

In assay [4] the test system is Guinea Pig Ileal Longitudinal Muscle. Put plainly: GPI, shift of the compound's effect by naloxone or nor-BNI. Also noted: GPI nor-BN1 Ke: unit not given here. On the procedure: as §2
The next assay has as its target T3, μ opioid receptor (Cavia porcellus, UniProt A0ACM8Q262).
T3 construct: 3H-DAGO (DAMGO) radioligand, cold naloxone
As to the kind of experiment: Bonding (binding) assay, guinea pig brain homogenate, 3H-DAGO (hot) / naloxone (cold). The conditions noted are these: for Ki: guinea pig brain homogenate; for Ki ratio κ/μ: selectivity ratio. The method, then:
as §1

For another assay, the target named is T4, δ-receptor (Mus musculus, UniProt P32300).
T4 construct: from tissue; host or cells: mouse vas deferens
T4 sequence (P32300 whole entry): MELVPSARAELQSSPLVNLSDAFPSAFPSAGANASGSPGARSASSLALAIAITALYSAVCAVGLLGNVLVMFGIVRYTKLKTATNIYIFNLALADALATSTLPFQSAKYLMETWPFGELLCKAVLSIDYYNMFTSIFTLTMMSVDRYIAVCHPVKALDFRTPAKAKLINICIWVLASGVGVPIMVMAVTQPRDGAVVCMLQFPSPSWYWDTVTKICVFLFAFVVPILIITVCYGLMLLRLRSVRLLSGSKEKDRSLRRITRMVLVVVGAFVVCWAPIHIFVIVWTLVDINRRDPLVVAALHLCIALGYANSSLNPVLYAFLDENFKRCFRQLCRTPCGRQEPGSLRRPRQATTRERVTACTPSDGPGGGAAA
Put plainly: Antagonism to DPDPE in Mouse Vas Deferens (MVD).

Where [5] appears, read: Mus musculus, T-cell, ConA-stimulated mouse T cells, read-out: IC50, activity in inhibiting T cell hyperplasia (Table 3).
Where [6] appears, read: MVD Antagonism to DPDPE, pA2, (20 nM).
[7] abbreviates: MVD Antagonism to DPDPE, pA2, (50 nM).
Setting [8] is: MVD Antagonism to DPDPE at 100 nM, pA2, at 100 nM.
[9] abbreviates: Mus musculus, T-cell, 48 h, read-out: Ratio of suppression of T cell proliferation.

The record followed here is patent US5539119A, “Indole derivatives” (priority 1990, dated 1996).

Molecules are shown by their SMILES. Like-named read-outs stand apart in the source and are kept apart here.

T1 sequence (A0A286XTF2 1-366): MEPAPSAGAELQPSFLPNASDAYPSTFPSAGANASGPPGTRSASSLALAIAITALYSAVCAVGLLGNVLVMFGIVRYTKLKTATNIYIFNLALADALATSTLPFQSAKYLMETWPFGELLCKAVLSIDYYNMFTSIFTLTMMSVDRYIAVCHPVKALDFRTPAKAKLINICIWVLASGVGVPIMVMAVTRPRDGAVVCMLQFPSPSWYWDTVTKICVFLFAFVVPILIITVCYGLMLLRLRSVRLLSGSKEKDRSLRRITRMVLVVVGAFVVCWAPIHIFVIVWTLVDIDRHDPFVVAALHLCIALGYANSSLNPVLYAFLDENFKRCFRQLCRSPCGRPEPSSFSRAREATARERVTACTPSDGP
T3 sequence (A0ACM8Q262 1-400): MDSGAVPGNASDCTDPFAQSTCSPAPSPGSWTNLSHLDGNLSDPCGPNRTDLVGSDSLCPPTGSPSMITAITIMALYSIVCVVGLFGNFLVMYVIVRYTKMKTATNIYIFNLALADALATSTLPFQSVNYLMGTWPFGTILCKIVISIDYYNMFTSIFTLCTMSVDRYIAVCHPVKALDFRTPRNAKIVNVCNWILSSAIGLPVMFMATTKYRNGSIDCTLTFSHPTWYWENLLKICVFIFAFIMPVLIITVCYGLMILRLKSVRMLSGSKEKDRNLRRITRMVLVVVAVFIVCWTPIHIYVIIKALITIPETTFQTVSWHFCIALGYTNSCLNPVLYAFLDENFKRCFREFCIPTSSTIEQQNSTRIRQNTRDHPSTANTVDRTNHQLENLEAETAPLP

Consider `Cn1c2c(c3ccccc31)C[C@H]1CN(CC3CC3)CC[C@]1(c1cccc(O)c1)C2` (relative stereo) [Compound 25, 2-Cyclopropylmethyl-4aα-(3-hydroxyphenyl)-1,2,3,4,4a,5,11,11aβ-octahydro-6-methyl-indolo[2,3-g]isoquinoline], for which the results for the Ki at δ opioid receptor [1], at κ opioid receptor and on μ opioid receptor were 2.77 nM, 144 nM and 1530 nM, respectively. For the same compound, the “Ki ratio μ/δ” value in the assay on δ opioid receptor [2] was 52.0; in the assay with δ opioid receptor [2] (selectivity ratio) it was 552. The IC50 came to 14500 nM in assay [3] and 3 µg/mL in the assay with mouse T cells (setting [5]). In addition, in assay [4], the “GPI naloxone DR” value is given as 0.55. In addition, in assay [4], the “GPI nor-BN1 DR” value was determined as 0.77. On μ opioid receptor, the “Ki ratio κ/μ” value stood at 0.09.
Turning to `Oc1cccc([C@]23CCN(CC4CC4)C[C@@H]2Cc2c([nH]c4c(F)cccc24)C3)c1` (relative stereo) [Compound 29, 2-Cyclopropylmethyl-4aα-(3-hydroxyphenyl)-7-fluoro-1,2,3,4,4a,5,11,11aβ-octahydro-6H-indolo[2,3-g]isoquinoline], the Ki on δ opioid receptor [1] was 1.91 nM; at κ opioid receptor it was 370 nM; at μ opioid receptor, 1180 nM. Also, the figures for the “Ki ratio μ/δ” value with δ opioid receptor [2] and in the assay on δ opioid receptor [2] (selectivity ratio) were 194 and 618, respectively. Further, the “MVD Antagonism to DPDPE, DR” value is recorded as 6.22 on δ-receptor ((20 nM)) and 34.1 at δ-receptor ((50 nM)). Further, the Kb is 3.89 nM on δ-receptor (setting [6]) and 1.51 nM on δ-receptor (setting [7]). Also, the figures for the IC50 (in assay [3]; in the assay on mouse T cells (setting [5])) were 6640 nM and 0.9 µg/mL, respectively. In addition, in assay [4], the “GPI naloxone DR” value was 2.50. The “GPI nor-BN1 DR” value in assay [4] came out at 2.06. Besides, the “GPI nor-BN1 Ke” value in assay [4] is on record as 18.9. In addition, the “GPI nor-BN1 pA2” value in assay [4] was found to be 7.72. In addition, at μ opioid receptor, the “Ki ratio κ/μ” value amounted to 0.31.
For `C=CCN1CC[C@]2(c3cccc(O)c3)Cc3[nH]c4ccccc4c3C[C@H]2C1` (relative stereo) [Compound 31, 2-Allyl-4aα-(3-hydroxyphenyl)-1,2,3,4,4a,5,11,11aβ-octahydro-6H-indolo[2,3-g]isoquinoline], the results for the Ki at δ opioid receptor [1], at κ opioid receptor and on μ opioid receptor were 2.97 nM, 2240 nM and 27000 nM, respectively. Further, the “Ki ratio μ/δ” value in the assay with δ opioid receptor [2] was 754; in the assay on δ opioid receptor [2] (selectivity ratio), > 9090. The Kb on δ-receptor (setting [8]) is 12.9 nM. On δ-receptor (at 100 nM), the “MVD Antagonism to DPDPE at 100 nM, DR” value stood at 4.84. For the same compound, the results for the IC50 (in assay [3]; with mouse T cells (setting [5])) were 20500 nM and 2.6 µg/mL, respectively. The “GPI naloxone DR” value in assay [4] came out at 0.93. Also, the “GPI nor-BN1 DR” value in assay [4] came out at 0.98. The “Ki ratio κ/μ” value at μ opioid receptor is reported as 0.09.
On to `Oc1cccc([C@]23CCN(CC4CC4)C[C@@H]2Cc2c([nH]c4ccc(F)cc24)C3)c1` (relative stereo) [Compound 37, 2-Cyclopropylmethyl-4aα-(3-hydroxyphenyl)-9-fluoro-1,2,3,4,4a,5,11,11aβ-octahydro-6H-indolo[2,3-g]isoquinoline], for which the inhibition constant (Ki) on δ opioid receptor [1] was 6.94 nM; on κ opioid receptor, 342 nM; at μ opioid receptor, 1550 nM. Further, the “Ki ratio μ/δ” value with δ opioid receptor [2] was determined as 49.3; in the assay on δ opioid receptor [2] (selectivity ratio), 223. Besides, the antagonist equilibrium constant (Kb) at δ-receptor (setting [8]) was 6.31 nM. Further, the “MVD Antagonism to DPDPE at 100 nM, DR” value at δ-receptor (at 100 nM) stood at 8.93. The values for the half-maximal inhibitory concentration (IC50) (in assay [3]; with mouse T cells (setting [5])) were 10500 nM and 1.9 µg/mL, respectively. For the same compound, the “GPI naloxone DR” value in assay [4] worked out at 1.19. In assay [4], the “GPI nor-BN1 DR” value stood at 1.26. Also, the “Ki ratio κ/μ” value at μ opioid receptor came out at 0.22.
Take `Oc1cccc([C@]23CCN(CC4CC4)C[C@@H]2Cc2c([nH]c4c(Cl)cccc24)C3)c1` (relative stereo) [Compound 40, 2-Cyclopropylmethyl-4aα-(3-hydroxyphenyl)-7-chloro-1,2,3,4,4a,5,11,11aβ-octahydro-6H-indolo[2,3-g]isoquinoline]: the inhibitory constant (Ki) on δ opioid receptor [1] turned out to be 8.31 nM; at κ opioid receptor it was 936 nM; at μ opioid receptor, 1650 nM. Also, the “Ki ratio μ/δ” value was found to be 113 in the assay on δ opioid receptor [2] and 199 in the assay on δ opioid receptor [2] (selectivity ratio). The “MVD Antagonism to DPDPE, DR” value on δ-receptor ((20 nM)) was determined as 3.02; at δ-receptor ((50 nM)), 18.5. Also, the Kb on δ-receptor (setting [6]) was 10 nM; at δ-receptor (setting [7]), 2.88 nM. Moreover, the IC50 in assay [3] came to 11700 nM; with mouse T cells (setting [5]), 2.6 µg/mL. Besides, the “GPI naloxone DR” value in assay [4] is reported as 2.17. For the same compound, the “GPI nor-BN1 DR” value in assay [4] was 2.05. Further, the “GPI nor-BN1 Ke” value in assay [4] turned out to be 19.0. Also, the “GPI nor-BN1 pA2” value in assay [4] is listed as 7.72. For the same compound, on μ opioid receptor, the “Ki ratio κ/μ” value worked out at 0.57.
As to `Oc1cccc([C@]23CCN(CC4CC4)C[C@]2(O)Cc2c([nH]c4ccccc24)C3)c1` (relative stereo) [Compound 56], the Ki on δ opioid receptor [1] was determined as 1.71 nM; on κ opioid receptor, 1550 nM; on μ opioid receptor, 723 nM. The “Ki ratio μ/δ” value was 906 in the assay with δ opioid receptor [2] and 423 in the assay on δ opioid receptor [2] (selectivity ratio). In the assay with mouse T cells (setting [5]), the IC50 is 14 µg/mL. For the same compound, the “Ki ratio κ/μ” value on μ opioid receptor is given as 2.14.
With `Oc1cccc([C@]23CCN(CC4CC4)C[C@@H]2Cc2c([nH]c4ccccc24)C3)c1` (single isomer, unassigned) [Compound 47, (+)-2-Cyclopropylmethyl-4aα-(3-hydroxyphenyl)-1,2,3,4,4a,5,11,11aβ-octahydro-6H-indolo[2,3-g]isoquinoline], the values for the Ki at δ opioid receptor [1], on κ opioid receptor and on μ opioid receptor were 0.37 nM, 388 nM and 1170 nM, respectively. Moreover, the “MVD Antagonism to DPDPE, DR” value is 4.44 at δ-receptor ((20 nM)) and 30.5 on δ-receptor ((50 nM)). Moreover, the Kb is 5.75 nM at δ-receptor (setting [6]) and 1.7 nM on δ-receptor (setting [7]). For the same compound, the IC50 in assay [3] came to 64500 nM; with mouse T cells (setting [5]), 3.8 µg/mL. Moreover, in assay [4], the “GPI naloxone DR” value is listed as 1.06. Moreover, the “GPI nor-BN1 DR” value in assay [4] is on record as 1.29.
For `Oc1cccc([C@]23CCN(CC4CC4)C[C@@H]2Cc2c([nH]c4ccccc24)C3)c1` (single isomer, unassigned) [Compound 52, (-)-2-Cyclopropylmethyl-4aα-(3-hydroxyphenyl)-1,2,3,4,4a,5,11,11aβ-octahydro-6H-indolo[2,3-g]isoquinoline], the Ki at δ opioid receptor [1] (guinea pig brain homogenate, read-out: Bonding assay Ki value δ) is 135 nM; on κ opioid receptor, 2280 nM; on μ opioid receptor, 81100 nM. On δ-receptor (at 100 nM), this compound had an antagonist dissociation constant (Kb) of 158 nM. On δ-receptor (at 100 nM), the “MVD Antagonism to DPDPE at 100 nM, Ke” value amounted to 158. Also, the IC50 in assay [3] came out at 16400 nM. In addition, the “IC50, activity in inhibiting T cell hyperplasia (Table 3)” value in the assay on mouse T cells (ConA-stimulated mouse T cells) is 3.5 µg/mL. Further, in assay [4], the “GPI naloxone DR” value is recorded as 1.06. Besides, the “GPI nor-BN1 DR” value in assay [4] was 1.03.
Take `Oc1ccc2c3c1O[C@H]1c4[nH]c5ccccc5c4C[C@@]4(O)[C@@H](C2)N(CC2CC2)CC[C@]314` [NTI, nartol indole, reference compound]: the “Ki ratio μ/δ” value with δ opioid receptor [2] (selectivity ratio) turned out to be 100. In addition, in the assay with mouse T cells (setting [9]), the inhibition at 0.1 µg/mL is 0%, the inhibition at 0.5 µg/mL turned out to be 0%, the inhibition at 0.75 µg/mL was 0% and the inhibition at 1 µg/mL was determined as 0%. Further, in the assay on mouse T cells (setting [9]), the inhibition at 2.5 µg/mL turned out to be 0%, the inhibition at 5 µg/mL was 15%, the inhibition at 7.5 µg/mL stood at 35% and the inhibition at 10 µg/mL worked out at 62%. For the same compound, in the assay with mouse T cells (setting [9]), the inhibition at 12.5 µg/mL worked out at 85%, the inhibition at 15 µg/mL turned out to be 98%, the inhibition at 17.5 µg/mL was 100% and the inhibition at 20 µg/mL amounted to 100%. Moreover, in the assay with mouse T cells (Mus musculus, T-cell, read-out: IC50 value, immunosuppression (text to Table 2)), the IC50 was 8.6 µg/mL.

Broadly, the Ki is a measure of affinity in units of concentration, obtained from inhibition or displacement. The term IC50 denotes the midpoint of a concentration-inhibition curve. For orientation: Kb means the equilibrium dissociation constant of an antagonist, usually derived from a functional assay.
